Assay results taken from patent US10358436B2, “Kinase inhibitors and method of treating cancer” (University Health Network, priority 2010, dated 2019).
Counter-ions that a name gives are not always drawn.

The compounds below were run against Aurora A (Homo sapiens (Human), UniProt O14965) (assay: Aurora A inhibition assay (Z-Lyte)).
Format: biochemical

Sequence of Aurora A (O14965 whole entry): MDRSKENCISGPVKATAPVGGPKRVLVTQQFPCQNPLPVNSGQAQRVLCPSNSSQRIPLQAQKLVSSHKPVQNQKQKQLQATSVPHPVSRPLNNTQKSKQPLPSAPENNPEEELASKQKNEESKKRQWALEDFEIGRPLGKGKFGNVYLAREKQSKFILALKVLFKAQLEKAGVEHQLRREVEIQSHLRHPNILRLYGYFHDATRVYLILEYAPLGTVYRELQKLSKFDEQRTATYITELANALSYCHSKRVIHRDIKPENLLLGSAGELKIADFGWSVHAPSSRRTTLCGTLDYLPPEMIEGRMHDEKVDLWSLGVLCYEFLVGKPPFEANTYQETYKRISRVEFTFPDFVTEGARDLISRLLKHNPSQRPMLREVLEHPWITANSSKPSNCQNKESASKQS

| Structure (SMILES) | inhibition at 1 µM |
| --- | --- |
| O=C1Nc2ccc(F)cc2[C@]12C[C@H]2c1ccc2c(/C=C/c3ccc(CN4CCOCC4)cc3)n[nH]c2c1 (relative stereo) [Example A219, 1R*,2S*)-(E)-5′-fluoro-2-(3-(4-(morpholinomethyl)styryl-1H-indazol-6-yl)spiro[cyclopropane-1,3′-indolin]-2′-one 2,2,2-trifluoroacetate] | > 50% |
| COc1ccc2c(c1)[C@]1(C[C@H]1c1ccc3c(-c4ccc(N5CC[C@@H](N(C)C)C5)cc4)n[nH]c3c1)C(=O)N2 [Example A127, (1R,2S)-2-(3-(4-((R)-3-(dimethylamino)pyrrolidin-1-yl)phenyl)-1H-indazol-6-yl)-5′-methoxyspiro[cyclopropane-1,3′-indolin]-2′-one 2,2,2-trifluoroacetate] | > 50% |
| NS(=O)(=O)c1cccc(-c2n[nH]c3cc([C@@H]4C[C@@]45C(=O)Nc4ccccc45)ccc23)c1 (relative stereo) [Example A130, 3-(6-((1R*,2S*)-2′-oxospiro[cyclopropane-1,3′-indoline]-2-yl)-1H-indazol-3-yl)benzenesulfonamide] | < 50% |
| COc1ccc2c(c1)[C@]1(C[C@H]1c1ccc3c(C#Cc4ccc(CN5CCN(C)CC5)cc4)n[nH]c3c1)C(=O)N2 (relative stereo) [Example A145, (1R*,2S*)-5′-methoxy-2-(3-((4-((4-methylpiperazin-1-yl)methyl)phenyl)ethynyl)-1H-indazol-6-yl)spiro[cyclopropane-1,3′-indolin]-2′-one bis(2,2,2-trifluoroacetate)] | < 50% |
| COc1ccc2c(c1)[C@]1(C[C@H]1c1ccc3c(C#Cc4ccc(C=O)cc4)n[nH]c3c1)C(=O)N2 (relative stereo) [Example A137, 4-((6-((1R*,2S*)-5′-methoxy-2′-oxospiro[cyclopropane-1,3′-indoline]-2-yl)-1H-indazol-3-yl)ethynyl)benzaldehyde] | < 50% |
| O=C1Nc2ccc(F)cc2[C@]12C[C@H]2c1ccc2c(/C=C/c3ccc(N4CCOCC4)nc3)n[nH]c2c1 (relative stereo) [Example A207, (1R*,2S*)-5′-fluoro-2-(3-((E)-2-(6-morpholinopyridin-3-yl)vinyl)-1H-indazol-6-yl)spiro[cyclopropane-1,3′-indolin]-2′-one 2,2,2-trifluoroacetate] | > 50% |
| COc1ccc2c(c1)[C@]1(C[C@H]1c1ccc3c(-c4ccc(N(C)CCN(C)C)cc4)n[nH]c3c1)C(=O)N2 [Example A129, (1R,2S)-2-(3-(4-((2-(dimethylamino)ethyl)(methyl)amino)phenyl)-1H-indazol-6-yl)-5′-methoxyspiro[cyclopropane-1,3′-indolin]-2′-one 2,2,2-trifluoroacetate] | < 50% |
| COc1ccc2c(c1)[C@]1(C[C@H]1c1ccc3c(-c4ccc(N5CCN(C6CCCC6)CC5)cc4)n[nH]c3c1)C(=O)N2 [Example A192, (1R,2S)-2-(3-(4-(4-cyclopentylpiperazin-1-yl)phenyl)-1H-indazol-6-yl)-5′-methoxyspiro[cyclopropane-1,3′-indolin]-2′-one 2,2,2-trifluoroacetate] | < 50% |
| COc1ccc2c(c1)[C@]1(C[C@H]1c1ccc3c(-c4ccc(N5CCC(N(C)C)CC5)cc4)n[nH]c3c1)C(=O)N2 [Example A120, (1R,2S)-2-(3-(4-(4-(dimethylamino)piperidin-1-yl)phenyl)-1H-indazol-6-yl)-5′-methoxyspiro[cyclopropane-1,3′-indolin]-2′-one 2,2,2-trifluoroacetate] | < 50% |
| Cc1ccc2c(c1)[C@]1(C[C@H]1c1ccc3c(/C=C/c4ccc(CN5CCOCC5)cc4)n[nH]c3c1)C(=O)N2 [Example A195, (1R,2S)-(E)-5′-methyl-2-(3-(4-(morpholinomethyl)styryl)-1H-indazol-6-yl)spiro[cyclopropane-1,3′-indolin]-2′-one 2,2,2-trifluoroacetate] | > 50% |
| COc1ccc2c(c1)[C@]1(C[C@H]1c1ccc3c(-c4ccc(C5CCN(C)CC5)cc4)n[nH]c3c1)C(=O)N2 [Example A123, (1R,2S)-5′-methoxy-2-(3-(4-(1-methylpiperidin-4-yl)phenyl)-1H-indazol-6-yl)spiro[cyclopropane-1,3′-indolin]-2′-one hydrochloride] | < 50% |
| CCN(CC)Cc1ccc(/C=C/c2n[nH]c3cc([C@@H]4C[C@@]45C(=O)Nc4ccc(OC)cc45)ccc23)cc1 [Example A206, (1R,2S)-(E)-2-(3-(4-((diethylamino)methyl)styryl)-1H-indazol-6-yl)-5′-methoxy spiro[cyclopropane-1,3′-indolin]-2′-one 2,2,2-trifluoroacetate] | > 50% |
| O=C1Nc2ccccc2[C@]12C[C@H]2c1ccc2c(/C=C/c3ccc(CN4CC[C@@H](F)C4)cc3)n[nH]c2c1 [Example A106, (1R,2S)-(E)-2-(3-(4-(((R)-3-fluoropyrrolidin-1-yl)methyl)styryl)-1H-indazol-6-yl)spiro[cyclopropane-1,3′-indolin]-2′-one 2,2,2-trifluoroacetate] | > 50% |
| COc1ccc2c(c1)[C@]1(C[C@H]1c1ccc3c(-c4ccc5c(c4)CN(C)CC5)n[nH]c3c1)C(=O)N2 [Example A70, (1R,2S)-5′-methoxy-2-(3-(2-methyl-1,2,3,4-tetrahydroisoquinolin-7-yl)-1H-indazol-6-yl)spiro[cyclopropane-1,3′-indolin]-2′-one 2,2,2-trifluoroacetate salt] | < 50% |
| COc1ccc2c(c1)[C@]1(C[C@H]1c1ccc3c(-c4cccc(CN5CCOCC5)c4)n[nH]c3c1)C(=O)N2 (relative stereo) [Example A136, (1R*,2S*)-5′-methoxy-2-(3-(3-(morpholinomethyl)phenyl)-1H-indazol-6-yl)spiro[cyclopropane-1,3′-indolin]-2′-one 2,2,2-trifluoroacetate] | < 50% |
| COc1ccc2c(c1)[C@]1(C[C@H]1c1ccc3c(-c4ccc(CN5CCN(C)CC5)cc4)n[nH]c3c1)C(=O)N2 (relative stereo) [Example A140, (1R*,2S*)-5′-methoxy-2-(3-(4-((4-methylpiperazin-1-yl)methyl)phenyl)-1H-indazol-6-yl)spiro[cyclopropane-1,3′-indolin]-2′-one bis-2,2,2-trifluoroacetate] | < 50% |
| CN1CCC(Oc2ccc(/C=C/c3n[nH]c4cc([C@@H]5C[C@@]56C(=O)Nc5ccccc56)ccc34)cc2)CC1 [Example A78, (1R,2S)-(E)-2-(3-(4-(1-methylpiperidin-4-yloxy)styryl)-1H-indazol-6-yl)spiro[cyclopropane-1,3′-indolin]-2′-one 2,2,2-trifluoroacetate salt] | > 50% |
| COc1ccc2c(c1)[C@@]1(C[C@@H]1c1ccc3c(-c4ccc(N5CCNCC5)cc4)n[nH]c3c1)C(=O)N2 [Example A50, (1S,2R)-5′-methoxy-2-(3-(4-(piperazin-1-yl)phenyl)-1H-indazol-6-yl)spiro[cyclopropane-1,3′-indolin]-2′-one 2,2,2-trifluoroacetate] | < 50% |
| COc1ccc2c(c1)[C@]1(C[C@H]1c1ccc3c(-c4ccc(N5CCN(C6CCCCC6)CC5)cc4)n[nH]c3c1)C(=O)N2 [Example A193, (1R,2S)-2-(3-(4-(4-cyclohexylpiperazin-1-yl)phenyl)-1H-indazol-6-yl)-5′-methoxyspiro[cyclopropane-1,3′-indolin]-2′-one 2,2,2-trifluoroacetate] | < 50% |
